Patent publication US7214507B2, “Plant enzymes for bioconversion” (Plant Research International B.V., priority 2001, dated 2007)
Values joined by “and” are separate entries in the source; they are usually repeats but may differ in a detail not shown here. Equal values may be shown once.

How the values were obtained:
[1] = tested on: (+)-germacrene A hydroxylase; experiment: Competitive inhibition of hydroxylation by 50 μM (+)-germacrene A or 50 μM α-cubebene; conditions: amorpha-4,11-diene alcohol (KI 1720), germacrene B alcohol (KI 1700)
[2] = tested on: microsomal pellet from chicory roots; experiment: Conversion of (+)-valencene by a microsomal pellet of chicory in the presence of NADPH; conditions: 100% = hydroxylation rate of β-selinene, 60 min
Procedure: The enzyme suspension was divided in 1 mL aliquots and incubated with 50 μM (+)-valencene in the presence of a 1 mM NADPH-regenerating system that consisted of 1 mM NADPH, 5 mM glucose-6-phosphate, and 1.2 IU glucose-6-phosphate cehydrogenase. The initial concentration of substrate in each assay was 45 μM and all experiments were done in duplicate. To the blank assays no NADPH regenerating system was added, so that cytochrome P450 enzymes (including the (+)-germacrene A hydroxylase) were not active. After 60 minutes the incubations were stopped by storing them at −20° C. in a freezer.

[3] = tested on: NAD(P)+-dependent dehydrogenase(s); experiment: Oxidation of alcohols by 150,000 g supernatant of chicory roots with NAD(P)+; type: biochemical, Cichorium intybus L.
Procedure: It was assumed that this β-nootkatol is an intermediate in the formation of nootkatone. For this reason incubations of 100 μM β-nootkatol were performed at pH 10 with NAD(P)^+and a 150,000 g supernatant of chicory roots, such as described for the conversion of (−)-elema-1,3,11(13)-12-ol and germacra-1(10),4,11(13)-trien-12-ol by NADP^+-dependent dehydrogenases by De Kraker et al. (2001). During incubation the added β-nootkatol was converted for more than 60% into nootkatone in the presence of either 1 mM NADP^+ or 1 mM NAD^+. In the absence of these cofactors conversion still amounted to 25%, whereas the boiled enzyme extract gave no conversion of β-nootkatol. At pH 7.5, enzyme activity was slightlylower, whereas a 150,000 g pellet, as expected, yielded 3-fold less dehydrogenase activity than the corresponding supernatant.
To get some more information about the substrate specificity of the dehydrogenase(s) present in chicory roots, incubations with the 150,000 g supernatant were also performed with 100 μM trans,trans-farnesol as substrate (FIG. 19) in the presence of either NAD^+ or NADP^+. Trans,trans-farnesol was converted up to 60% into a mixture of trans,trans-farnesal and cis,trans-farnesal, and small amounts of farnesoic acid were observed as well.

## CC(C)=C1C/C=C(\C)CC/C=C(\C)CC1 [germacrene B]
[1]; 50 μM (+)-germacrene A added
  Inhibition (%) ± SD, Germacrene A, second product: 100.0%
[1]; 50 μM α-cubebene added
  Inhibition (%) ± SD, α-Cubebene, second product: 27.3 ± 10%

## C=C(C)[C@@H]1CCC2=CCC[C@@H](C)[C@]2(C)C1 [(+)-valencene]
[2]
  Relative conversion to nootkatone: 24.4% and 24.4 ± 1.1%
  Relative conversion to valencen-12-ol: 2.61% and 2.6 ± 0.1%

## CC(C)=CCC/C(C)=C/CC/C(C)=C/CO [Trans,trans-farnesol, trans,trans-farnesol]
[3]; 100 μM substrate, NAD+ or NADP+, 150,000 g supernatant
  Conversion into a mixture of trans,trans-farnesal and cis,trans-farnesal: up to 60%
[3]; pH 7.0, maximum at pH 10
  Conversion of farnesol into farnesal, share of maximum enzyme activity: 30%

## C=C(C)[C@@H]1CCC2=C[C@@H](O)C[C@@H](C)[C@]2(C)C1 [β-nootkatol]
[3]; 100 μM substrate, pH 10, 1 mM NADP+ or 1 mM NAD+, 150,000 g supernatant
  Conversion into nootkatone: more than 60%
[3]; 100 μM substrate, pH 10, no NAD(P)+
  Conversion into nootkatone in the absence of cofactors: 25%
